IC50 data for 2 compounds are collected here from BindingDB's records for doi:10.1021/np9904410 (Virginia Polytechnic Institute and State University, 2000).

The nature of assay [1]: Inhibition of topoisomerase 1 in Saccharomyces cerevisiae RS321N in glucose medium by microtiter plate assay.
Assay [2] is described as follows: Inhibition of topoisomerase 1 in Saccharomyces cerevisiae RS321N in galactose medium by microtiter plate assay.

Consider `COc1ccc(CCc2cc(OC)c(OC)c(OC)c2)c(O[C@H]2O[C@@H](CO)[C@H](O)[C@@H](O)[C@@H]2O)c1O`, for which the figures for the IC50 in assay [1] and in assay [2] were above 201 µM and 138 µM, respectively.

Consider `COc1ccc(/C=C\c2cc(OC)c(OC)c(OC)c2)c(O)c1O` [combretastatins A-1], for which the IC50 in assay [1] was determined as 5.71 µM; in assay [2], 4.81 µM.
